The target of assay [1] is T1, system Xc^− (Homo sapiens, UniProt Q9UPY5).
T1 sequence (Q9UPY5 1-501): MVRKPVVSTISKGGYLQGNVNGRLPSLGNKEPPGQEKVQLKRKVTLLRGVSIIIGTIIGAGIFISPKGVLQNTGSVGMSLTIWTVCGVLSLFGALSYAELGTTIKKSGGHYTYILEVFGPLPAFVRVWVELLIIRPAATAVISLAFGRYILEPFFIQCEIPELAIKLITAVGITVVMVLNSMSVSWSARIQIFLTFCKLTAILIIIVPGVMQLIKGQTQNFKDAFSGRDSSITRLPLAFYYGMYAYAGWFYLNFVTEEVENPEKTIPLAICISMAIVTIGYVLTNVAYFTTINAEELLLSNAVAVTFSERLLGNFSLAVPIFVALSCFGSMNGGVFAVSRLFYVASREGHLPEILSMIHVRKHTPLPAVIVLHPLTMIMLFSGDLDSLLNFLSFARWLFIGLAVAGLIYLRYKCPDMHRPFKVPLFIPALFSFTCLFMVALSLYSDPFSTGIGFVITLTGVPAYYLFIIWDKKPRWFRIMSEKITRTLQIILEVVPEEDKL
T1 sequence (P08195 1-529 partner): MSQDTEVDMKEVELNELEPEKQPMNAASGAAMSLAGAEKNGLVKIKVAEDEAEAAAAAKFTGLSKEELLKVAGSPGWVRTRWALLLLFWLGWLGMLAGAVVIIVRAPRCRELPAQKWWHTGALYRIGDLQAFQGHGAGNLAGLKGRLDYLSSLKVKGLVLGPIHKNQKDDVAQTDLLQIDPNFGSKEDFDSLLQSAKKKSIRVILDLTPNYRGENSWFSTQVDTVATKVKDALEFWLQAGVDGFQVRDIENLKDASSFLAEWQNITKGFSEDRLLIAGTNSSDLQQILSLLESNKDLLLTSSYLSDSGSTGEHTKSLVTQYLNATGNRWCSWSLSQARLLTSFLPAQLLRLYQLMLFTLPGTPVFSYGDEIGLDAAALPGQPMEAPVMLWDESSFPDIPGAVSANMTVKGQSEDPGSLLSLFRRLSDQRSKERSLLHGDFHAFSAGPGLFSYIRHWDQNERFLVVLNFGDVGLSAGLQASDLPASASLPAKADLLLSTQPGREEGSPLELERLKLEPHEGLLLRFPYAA
Description: Cystine-induced glutamate release assay. Type of assay: cell-based. On the set-up: endogenous in cells; host or cells: H4 cells. The conditions noted are these: H4 cells, sodium-free HEPES buffer, 50 μM L-Cystine, 2 hours, Amplex Red glutamate readout; for IC50: read-out: pIC50 Cystine-induced glutamate release assay (converted). The essentials: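 IC50 (reported as pIC50) normalized to DMSO 1% and Erastin 50 μM controls, from Amplex Red fluorescence of glutamate exported into supernatant. H4 cells were washed into sodium-free buffer to exclude EAAT transport, then given compound with 50 μM L-cystine for 2 h in the incubator.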

The target in assay [2] is T1, system Xc^−. Description: [^14C]L-Cystine uptake assay. The class given is cell-based. The arrangement: endogenous in cells; host or cells: H4 cells. Particulars: H4 cells, sodium-free HEPES buffer, 0.5 μM L-[14C]Cystine and 4.5 μM L-Cystine, 1 hour at 37° C.; for IC50: read-out: pIC50 [^14C] L-Cystine uptake assay (converted). The essentials:
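Compound effect is given as pIC50, taken between controls of 1% DMSO and 50 μM Erastin. Human H4 cells were pretreated 15 min with compound in sodium-free buffer, then took up 0.5 μM [14C]cystine with 4.5 μM cold cystine for 1 hour at 37° C, read by scintillation proximity counting.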

As to `Cc1cc2c(cc1C)N(CC(=O)Nc1ccc(C(F)(F)F)cc1)C(=O)Cc1ccc(Cl)nc1-2` [#10, 2-(2-chloro-9,10-dimethyl-6-oxo-5H-pyrido[3,2-d][1]benzazepin-7-yl)-N-[4-(trifluoromethyl)phenyl]acetamide], the IC50 in assay [1] and in assay [2] was 100 to 501 nM throughout.

As to `COc1cc2c(c(F)n1)-c1cccnc1C(C)C(=O)N2CC(=O)Nc1ccc(F)c(Cl)c1` (single isomer, unassigned) [#216, Enantiomer (10S) or (10R) of N-(3-chloro-4-fluoro-phenyl)-2-(3-fluoro-5-methoxy-10-methyl-9-oxo-4,8,12-triazatricyclo[9.4.0.0^2,7]pentadeca-1(11),2(7),3,5,12,14-hexaen-8-yl)acetamide], the IC50 in assay [1] was 39.8 to 100 nM; in assay [2], 15.8 to 39.8 nM.

For the compound `COc1cc2c(c(F)n1)-c1cccnc1CC(=O)N2CC(=O)Nc1ccc(C(F)(F)F)cc1` [#124, 2-(3-fluoro-5-methoxy-9-oxo-4,8,12-triazatricyclo[9.4.0.0^2,7]pentadeca-1(11),2,4,6,12,14-hexaen-8-yl)-N-[4-(trifluoromethyl)phenyl]acetamide], the IC50 in assay [1] was 39.8 to 100 nM; in assay [2], 15.8 to 39.8 nM.

Consider `Cc1cc2c(c(F)n1)-c1cccnc1[C@@H](C)C(=O)N2CC(=O)Nc1ccc(Br)c(F)c1` [#158, N-(4-bromo-3-fluoro-phenyl)-2-[(10R)-3-fluoro-5,10-dimethyl-9-oxo-4,8,12-triazatricyclo[9.4.0.0^2,7]pentadeca-1(11),2(7),3,5,12,14-hexaen-8-yl]acetamide], for which the results for the IC50 in assay [1] and in assay [2] were 15.8 to 39.8 nM and less than 15.8 nM, respectively.

Take `COCC1C(=O)N(CC(=O)Nc2ccc(C(F)(F)F)cc2)c2cc(C)nc(Cl)c2-c2ccccc21` (centres unmarked) [#122, 2-[1-chloro-7-(methoxymethyl)-3-methyl-6-oxo-7H-pyrido[3,4-a][3]benzazepin-5-yl]-N-[4-(trifluoromethyl)phenyl]acetamide]: the values for the IC50 in assay [1] and in assay [2] were 100 to 501 nM and 39.8 to 100 nM, respectively.

Consider `Cc1cc2c(c(Cl)n1)-c1cncnc1C(C)C(=O)N2CC(=O)Nc1ccc(C(F)(F)F)cc1` (centres unmarked) [#163, 2-(15-chloro-8,13-dimethyl-9-oxo-4,6,10,14-tetrazatricyclo[9.4.0.0^2,7]pentadeca-1(11),2(7),3,5,12,14-hexaen-10-yl)-N-[4-(trifluoromethyl)phenyl]acetamide], for which the IC50 in assay [1] and in assay [2] was 15.8 to 39.8 nM in each case.

Consider `Cc1cc2c(c(F)n1)-c1cccnc1[C@@H](C)C(=O)N2CC(=O)Nc1ccc(C(F)(F)F)cc1F` [#247, 2-[(10R)-3-fluoro-5,10-dimethyl-9-oxo-4,8,12-triazatricyclo[9.4.0.0^2,7]pentadeca-1(11),2(7),3,5,12,14-hexaen-8-yl)-N-[2-fluoro-4-(trifluoromethyl)phenyl]acetamide], for which the IC50 in assay [1] and in assay [2] was 39.8 to 100 nM in each case.

With `Cc1cc2c(cn1)-c1cccnc1C(C)C(=O)N2CC(=O)Nc1ccc(F)c(Cl)c1` (single isomer, unassigned) [#253, N-(3-chloro-4-fluoro-phenyl)-2-(5,10-dimethyl-9-oxo-4,8,12-triazatricyclo[9.4.0.0^2,7]pentadeca-1(11),2(7).3,5,12,14-hexaen-8-yl)acetamide], the IC50 in assay [1] and in assay [2] was 39.8 to 100 nM each time.

Turning to `Cc1cc2c(c(=O)n1C)-c1ccc(F)cc1C(C)C(=O)N2CC(=O)Nc1ccc(Cl)c(F)c1` (single isomer, unassigned) [#174, N-(4-chloro-3-fluoro-phenyl)-2-(9-fluoro-2,3,7-trimethyl-1,6-dioxo-7H-pyrido[4,3-d][3]benzazepin-5-yl)acetamide], the IC50 in assay [1] and in assay [2] was less than 15.8 nM throughout.

On to `COc1nc(C)cc2c1-c1cnnn1CC(=O)N2CC(=O)Nc1ccc(C(F)(F)F)cc1` [#74, 2-(14-methoxy-12-methyl-8-oxo-4,5,6,9,13-pentazatricyclo[8.4.0.0^2,6]tetradeca-1(1),2,4,11,13-pentaen-9-yl)-N-[4-(trifluoromethyl)phenyl]acetamide], for which the IC50 in assay [1] and in assay [2] was 100 to 501 nM in each case.

Take `Cc1cc2c(c(Cl)n1)-c1ccccc1CC(=O)N2CC(=O)Nc1ccc(C(F)(F)F)cc1` (single isomer, unassigned) [#190, Atropisomer aS or aR of 2-(1-chloro-3-methyl-6-oxo-7H-pyrido[4,3-d][3]benzazepin-5-yl)-N-[4-(trifluoromethyl)phenyl]acetamide]: in assay [1], the “pIC50 Cystine-induced glutamate release assay” value is on record as “A (about 6.3 ≤ pIC50 ≤ about 7.00)”. Moreover, the “pIC50 [^14C] L-Cystine uptake assay” value in assay [2] is reported as “B (about 7.00 < pIC50 ≤ about 7.40)”.

For `COc1nc(C)cc2c1-c1cccnc1CC(=O)N2CC(=O)Nc1ccc(C(F)(F)F)cc1` [#75, 2-(3-methoxy-5-methyl-9-oxo-4,8,12-triazatricyclo[9.4.0.0^2,7]pentadeca-1(11),2,4,6,12,14-hexaen-8-yl)-N-[4-(trifluoromethyl)phenyl]acetamide], the IC50 in assay [1] and in assay [2] was 15.8 to 39.8 nM in each case.

Regarding `CC1C(=O)N(CC(=O)Nc2ccc(Cl)c(F)c2)c2cc(Cl)cc(F)c2-c2ccnnc21` (single isomer, unassigned) [#384, 2-[9-chloro-11-fluoro-5-methyl-6-oxo-5H-pyridazino[3,4-d][1]benzazepin-7-yl]-N-(4-chloro-3-fluoro-phenyl)acetamide], the IC50 in assay [1] and in assay [2] was less than 15.8 nM each time.

As to `O=C(CN1C(=O)Cc2cc(F)ccc2-c2c1ccnc2Cl)Nc1ccc(C(F)(F)F)cc1` [#51, 2-(1-chloro-9-fluoro-6-oxo-7H-pyrido[4,3-d][3]benzazepin-5-yl)-N-[4-(trifluoromethyl)-phenyl]acetamide], the IC50 in assay [1] is 39.8 to 100 nM; in assay [2], less than 15.8 nM.

With `Cc1cc2c(c(F)n1)-c1ccnnc1C(C)C(=O)N2CC(=O)Nc1ccc(C(F)F)cc1` (single isomer, unassigned) [#257, N-[4-(difluoromethyl)phenyl]-2-[3-fluoro-5,10-dimethyl-9-oxo-4,8,12,13-tetrazatricyclo[9.4.0.0^2,7]pentadeca-1(15),2,4,6,11,13-hexaen-8-yl]acetamide], the IC50 in assay [1] and in assay [2] was 39.8 to 100 nM each time.

As to `Cc1cc2c(cn1)-c1cccnc1C(C)C(=O)N2CC(=O)Nc1ccc(C(F)(F)F)cc1` (centres unmarked) [#91, 2-(5,10-dimethyl-9-oxo-4,8,12-triazatricyclo[9.4.0.0^2,7]pentadeca-1(11),2(7),3,5,12,14-hexaen-8-yl)-N-[4-(trifluoromethyl)phenyl]acetamide], the IC50 in assay [1] is 39.8 to 100 nM; in assay [2] it was 15.8 to 39.8 nM.

As for `COc1cc2c(cn1)-c1cc(F)cnc1C(C)C(=O)N2CC(=O)Nc1ccc(Cl)c(F)c1` (single isomer, unassigned) [#410, N-(4-chloro-3-fluoro-phenyl)-2-[14-fluoro-5-methoxy-10-methyl-9-oxo-4,8,12-triazatricyclo[9.4.0.0^2,7]pentadeca-1(15),2(7),3,5,11,13-hexaen-8-yl]acetamide], the IC50 in assay [1] and in assay [2] was 15.8 to 39.8 nM in each case.

As to `Cc1cc2c(cc1C#N)-c1cc(F)cnc1C(C)C(=O)N2CC(=O)Nc1ccc(C(F)F)cc1` (single isomer, unassigned) [#420, 2-[10-cyano-2-fluoro-5,9-dimethyl-6-oxo-5H-pyrido[2,3-d][1]benzazepin-7-yl]-N-[4-(difluoromethyl)phenyl]acetamide], the IC50 in assay [1] and in assay [2] was less than 15.8 nM each time.

For the compound `Cc1cc2c(c(Cl)n1)-c1cccnc1C(C)C(=O)N2CC(=O)Nc1ccc(C#N)cc1` (centres unmarked) [#115, 2-(3-chloro-5,10-dimethyl-9-oxo-4,8,12-triazatricyclo[9.4.0.0^2,7]pentadeca-1(11),2,4,6,12,14-hexaen-8-yl)-N-(4-cyanophenyl)acetamide], the IC50 in assay [1] is 100 to 501 nM; in assay [2] it was 39.8 to 100 nM.

Values taken from patent US20260217708A1, “FUSED BENZAZEPINE DERIVATIVES FOR USE IN THE TREATMENT OF CANCER AND EPILEPSY” (UCB BIOPHARMA SRL, priority 2023, published 2026).
